Type in all cases: cell-based
Experiment [1] concerns Pseudomonas aeruginosa NCTC 10490. As to the kind of experiment: In vitro test on facultative anaerobes and aerobes (MIC), Example 3. The note with it: NCTC10490; Pseudomonas aeruginosa NCTC 10490, Muller-Hinton agar, 37° C., 18 hours. The method, then: (§1) An in vitro test on facultative anaerobes and aerobes was carried out in the following manner.
(§2) Preparation of Antibacterial Substance-containing Agar Plate
(§3) The substance to be evaluated was dissolved in 100% dimethyl sulfoxide (DMSO) and diluted by 2-fold serial dilution. Each of the dilution solutions was put into a sterilized round Petri dish and mixed with 10 ml of Muller-Hinton agar medium which had been sterilized and kept at 50° C., and the mixture was solidified. Final concentration of DMSO becomes 1% or less.
(§4) Preparation of Inoculation Material and Judgment of Test Results
(§5) Each strain to be tested was cultured overnight in an incubator set at 37° C. using Muller-Hinton broth, and the resulting broth was diluted to a density of about 10^6 cells/1 ml using Muller-Hinton broth. About 5 μl portion of the dilution was inoculated onto the surface of the drug-containing agar medium using a microplanter. The thus inoculated agar plate was cultured at 37° C. for 18 hours in an incubator. After completion of the culturing, the agar plate was observed, and the minimum drug concentration by which cell growth was not observed was defined as MIC.

In another experiment the test system is Escherichia coli 0-1. Described as above. The note with it: 01; Escherichia coli 0-1, Muller-Hinton agar, 37° C., 18 hours. The method, then:
as §1, §2, §3, §4, §5

Experiment [2] has as its system Staphylococcus aureus FDA 209P. The description is as above. Conditions: FDA209P, Muller-Hinton agar, 37° C., 18 hours. As for the experimental part:
as §1, §2, §3, §4, §5

The subject of experiment [3] is Helicobacter pylori ATCC 43504. As to the kind of experiment: Measurement of antibacterial activity (in vitro, MIC on Brucella agar), Example 2. Conditions: ATCC43504, Brucella agar medium (0.1% β-cyclodextrin), 37° C., 3 days (72 hours), N2 80%, CO2 15%, O2 5%. As for the experimental part: An in vitro test of the aforementioned substance was carried out in the following manner.
Measurement of antibacterial activity
as §2
The substance to be evaluated was dissolved in 100% dimethyl sulfoxide (DMSO) and diluted by 2-fold serial dilution. Each of the dilution solutions was put into a sterilized round Petri dish and mixed with 10 ml of Brucella agar medium (0.1% β-cyclodextrin) which had been sterilized and kept at 50° C., and the mixture was solidified. Final concentration of DMSO becomes 1% or less.
as §4
A Helicobacter pylori strain, for example Helicobacter pylori ATCC 43504, was cultured at 37° C. for 3 days in a multi gas incubator (N2 : 80%, CO2 : 15%, O2: 5 %) using Brucella agar medium (containing 5% calf serum albumin) and then prepared into a cell suspension of about 10^8 cells/1 ml using Brucella broth based on its turbidity. The cell suspension was diluted 100 times with Brucella broth, and about 5 μl portion of the dilution was inoculated onto the surface of the drug-containing agar medium using a microplanter. The thus inoculated agar plate was cultured at 37° C. for 3 days (72 hours) in the aforementioned multi gas incubator. […]

Experiment [4] relates to Peptostreptococcus productus CAYA 12-2. The experiment is described as follows: In vitro test on anaerobes (MIC), Example 4. Conditions: Blautia producta, CAYA122, 18 h. The method, then:
(§6) An in vitro test on anaerobes was carried out in the following manner.
as §2
(§7) The substance to be evaluated was dissolved in 100% dimethyl sulfoxide (DMSO) and diluted by 2-fold serial dilution. Each of the dilution solutions was put into a sterilized round Petri dish and mixed with 10 ml of GAM agar medium which had been sterilized and kept at 50° C., and the mixture was solidified. Final concentration of DMSO becomes 1% or less.
as §4
(§8) Each strain to be tested was cultured overnight at 37° C. in GAM broth using an anaerobic culturing apparatus whose inside atmosphere had been replaced with a mixed gas system of 80% N2, 10% CO2 and 10% H2, and the resulting broth was diluted to a density of about 10^6 cells/1 ml using the same GAM broth. About 5 μl portion of the dilution was inoculated onto the surface of the drug-containing agar medium using a microplanter. The thus inoculated agar plate was cultured at 37° C. for 18 hours using the anaerobic culturing apparatus. After completion of the culturing, the agar plate was observed, and the minimum drug concentration by which cell growth was not observed was defined as MIC.

Experiment [5] deals with Bacteroides fragiris GAI 5562. The experiment is described as follows: In vitro test on anaerobes (MIC), Example 4. Conditions: GAI5562, 18 h. As for the experimental part:
as §6, §2, §7, §4, §8

Experiment [6] has as its system Bifidobacterium bifidum CAYA 21-1. As to the kind of experiment: In vitro test on anaerobes (MIC), Example 4. The note with it: CAYA211, 18 h. The method, then: as §6, §2, §7, §4, §8
The test system of another experiment is Helicobacter pylori. As to the kind of experiment: Anti-Helicobacter pylori activity (general statement).
The test system of the next experiment is other bacteria. The experiment is described as follows: Selectivity, influence upon other bacteria (general statement).

Consider 2 compounds from US6184230A, “Anti-helicobacter pylori pharmaceutical composition” (Yamanouchi Pharmaceutical Co., Ltd., priority 1997, dated 2001).

In brackets after ≈: the same amount, converted by molar mass.

Turning to `CCCCCC/C=C/Cc1c(C)c(=O)c2ccccc2n1O` [1-hydroxy-2-(2-trans-nonenyl)-3-methyl-4(1H)-quinolone], the MIC (in general, the least concentration at which growth counts as inhibited) was not below 12.5 µg/mL in experiment [1]; not below 12.5 µg/mL against Escherichia coli 0-1; not below 12.5 µg/mL in experiment [2]; 0.025 µg/mL (≈ 0.0835 µM) in [3]; more than 25 µg/mL in experiment [4]; more than 25 µg/mL in experiment [5]. Also, the MIC in experiment [6] is more than 25 µg/mL.

Take `CCCCCC/C=C/Cc1c(C)c(=O)c2ccccc2n1O` [YL-02729S]: the anti-Helicobacter pylori activity result in the experiment with Helicobacter pylori was “excellent anti-Helicobacter pylori activity”. In the experiment with other bacteria, the “influences upon other bacteria” value was “does not exert influences upon other bacteria” and the selectivity entry is “high selectivity”.
